# Results published in patent publication US20040214782A1, “Treatment or prevention of coccidiosis” (priority 1999, published 2004).
# Experiments:
# [1] = system: Eimeria culture (93% E bovis, 4% E. auburnenis and 3% E. zuernii); assay: Example 2: prevention of coccidiosis in Eimeria challenged calves, treated day 10 post-challenge; type: in vivo; conditions: for clinical responses compared to saline treated animals: conclusion of Example 2; for oocyst shedding compared with the saline controls: days 19-28 post-infection; for oocyst shedding compared with the saline controls / mean daily attitude scores compared to the saline controls / mean daily fecal consistency scores compared with the saline treated calves / mean daily hydration scores compared to the saline treated calves: tilmicosin 10 mg/kg SC once, amprolium 10 mg/kg oral 5 days; for calves that died due to coccidiosis: deaths on day 23 and day 28 post-infection; for mean daily attitude scores compared to the saline controls / mean daily fecal consistency scores compared with the saline treated calves: p≦0.05; for Mortality Rates: 10 calves, 28 day study
# Description: Administration of amprolium was compared with tilmicosin, a commercially available macrolide antibiotic, in the prevention of coccidiosis in Eimeria challenged calves.
# Sixty naive calves were housed in five holding pens (12 animals/pen). Calves were held 7 days prior to challenge in order to acclimate to the facility. On days −6, −4, and −2 pre-challenge fecal samples were obtained for semi-quantitative oocyst counts. On day −4 pre-challenge, oocysts were speciated if present. On day 0 calves were inoculated orally with the Eimeria culture. Temperatures were determined and recorded at approximately the same time each day for the duration of the study. Attitude, hydration and fecal consistency scores were evaluated daily. Post-challenge, fecal samples were collected on days 2, 4, 6, 8 and 10. Oocysts were speciated on day 10 post-challenge.
# On day 10 post-challenge, each of fifty animals was randomly allotted to one of five treatment groups. Agents were either administered subcutaneously in the pre-scapular region of the neck or drench dosed orally.
# Post-treatment, fecal samples were taken for semi-quantitative analysis of the shedding of coccidia oocysts on days 12, 14, 16 and 18. Beginning on day 19 and continuing through day 28, daily fecal samples were evaluated for semi-quantitative counts. Speciation of shed oocysts was performed on days 19-21, 23, 26 and 28.
# Calves dying during the course of the study or euthanized due to a moribund condition associated with clinical coccidiosis were considered mortalities. Mortalities were necropsied and gross findings were recorded. At study termination (day 28), all remaining animals were weighed, euthanized, and post mortem examinations conducted.
# Description of Disease Outbreak—Calves were inoculated orally with 2 ml of a coccidia challenge containing 125,000 sporulated oocysts with a species percent count of 93% E bovis, 4% E. auburnenis and 3% E. zuernii coccidia oocysts. At 19 days post-challenge, oocyst shedding was detected.
# [2] = system: bovine coccidia (Eimeria bovis ~90% and Eimeria auburnenis ~10%); assay: Example 1: coccidiosis in Eimeria challenged calves, treated once clinical disease and oocyst shedding had begun; type: in vivo; conditions: for mean daily attitude scores compared to the saline controls / mean daily fecal consistency scores compared to the saline treated calves / number of animals that ceased oocyst shedding compared to the saline treated calves: amprolium oral SIDX5; for Mortality Rates: 8 calves, 21 day study; for calves that died due to coccidiosis: deaths within 24 hours of dosing; for number of animals that ceased oocyst shedding compared to the saline treated calves: from day 6 post-dosing, Formula II 5 and 2.5 mg/kg
# Description: Administration of an azalide macrolide antibiotic according to the invention was compared with administration of amprolium, a commercially available agent, and saline control solution, in preventing full development of coccidiosis in Eimeria challenged calves.
# Eighty naive calves weighing approximately 110-125 kg were housed in twenty holding pens (4 animals/pen) 16 days prior to study initiation. […] The calves were acclimated in order to facilitate coccidial exposure and allow time for clinical signs to develop. On day 14, with no signs of naturally occurring coccidiosis in the calves, each calf was challenged orally with a mixed culture of bovine coccidia (Eimeria bovis˜90% and Eimeria auburnenis ˜10%). Calves were each also challenged orally with 1.25×10^7 oocysts and observed for signs of clinical disease. On day 23 post-challenge, calves began to show signs of clinical disease and fecal samples were taken to determine oocyst shedding.
# Calves were randomly allotted to one of six treatment groups. They were weighed at allotment and treatments administered subcutaneously in the pre-scapular region of the neck. Amprolium was administered by drench dosing (SIDX5) beginning on the day of allotment.
# Rectal temperatures were determined and recorded at approximately the same time each day for the 21 day duration of the study. Attitude, hydration and fecal consistency scores were evaluated daily. Daily fecal samples were taken for qualitative analysis of the shedding of oocysts. Mortalities were necropsied and gross findings were recorded.
# At termination of the experiment, surviving animals were weighed, euthanized, and post-mortem examinations conducted.
# [3] = Formula II 5 and 2.5 mg/kg SC once, p>0.05
# [4] = amprolium (Corid 20% soluble powder) oral drench SIDX5
Structure (SMILES),21 day average daily weight gain relative to saline [1],clinical responses compared to saline treated animals [1],oocyst shedding compared with the saline controls [1],calves that died due to coccidiosis [1],mean daily attitude scores compared to the saline controls [1],mean daily fecal consistency scores compared with the saline treated calves [1],mean daily hydration scores compared to the saline treated calves [1],"mean daily attitude scores compared to the saline controls [2, 3]","mean daily fecal consistency scores compared to the saline treated calves [2, 3]","clinical responses (clinical scores, weight gain and oocyst shedding) compared to the saline control group ([2]; conclusion of Example 1)",calves that died due to coccidiosis ([2]; azalide at 5 and 2.5 mg/kg),number of animals that ceased oocyst shedding compared to the saline treated calves ([2]; p>0.05),further results
"CC[C@H]1OC(=O)C[C@@H](O)[C@H](C)[C@@H](O[C@@H]2O[C@H](C)[C@@H](O)[C@H](N(C)C)[C@H]2O)[C@@H](CCN2C[C@H](C)C[C@H](C)C2)C[C@@H](C)C(=O)/C=C/C(C)=C/[C@@H]1CO[C@@H]1O[C@H](C)[C@@H](O)[C@@H](OC)[C@H]1OC [Tilmicosin, tilmicosin]",responded similarly,improved clinical responses,decreased oocyst shedding,Two animals died,significant reductions,statistically significant reductions,reductions,–,–,–,–,–,"21 Day Average Daily Gain ([1]; tilmicosin 10 mg/kg SIDX1, SC): 0.21 kg; Mortality Rates ([1]; tilmicosin 10 mg/kg SIDX1, SC): 2/10 (20%)"
"CCCc1ncc(C[n+]2ccccc2C)c(N)n1 [Amprolium, amprolium]",Numerical increases in weight gain,improved clinical responses,decreased oocyst shedding,One animal,significant reductions,statistically significant reductions,reductions,significant reductions,statistically significant reductions,improved clinical responses,one,significant increase,"21 Day Average Daily Gain ([1]; amprolium 10 mg/kg, 5 days drench dosing): 0.60 kg; Mortality Rates ([1]; amprolium (Corid 9.6% Oral Solution) 10 mg/kg, 5 days drench dosing): 1/10 (10%); 21 Day Average Daily Gain [2, 4]: 0.75 kg; Proportion of infected calves that ceased oocyst shedding 6 days post-treatment [2, 4]: 7/7 (100%); Mortality Rates [2, 4]: 1/8 (13%)"
CCCN(C)C[C@]1(O)[C@H](C)O[C@@H](O[C@H]2[C@H](C)[C@@H](O[C@@H]3O[C@H](C)C[C@H](N(C)C)[C@H]3O)[C@@](C)(O)C[C@@H](C)CN[C@H](C)[C@@H](O)[C@](C)(O)[C@@H](CC)OC(=O)[C@@H]2C)C[C@@]1(C)OC [Compound of Formula II],–,–,–,–,–,–,–,significant reductions,statistically significant reductions,improved clinical responses,no mortalities,significant increase,"21 Day Average Daily Gain ([2]; 2.5 mg/kg, SIDX1, SC): 1.03 kg; Proportion of infected calves that ceased oocyst shedding 6 days post-treatment ([2]; 2.5 mg/kg, SIDX1, SC): 7/8 (88%); Mortality Rates ([2]; 2.5 mg/kg, SIDX1, SC): 0/8 (0%); 21 Day Average Daily Gain ([2]; 5 mg/kg, SIDX1, SC): 0.79 kg; Proportion of infected calves that ceased oocyst shedding 6 days post-treatment ([2]; 5 mg/kg, SIDX1, SC): 7/8 (88%); Mortality Rates ([2]; 5 mg/kg, SIDX1, SC): 0/8 (0%); mean daily hydration scores compared to the saline treated calves [2, 3]: statistically significant reductions; 21 day weight gain compared to the saline controls ([2]; azalide at 5 and 2.5 mg/kg): Numerical increases in weight gain; efficacy relative to amprolium ([2]; conclusion of Example 1, less complicated dosing regimen): comparable to that of amprolium"
